Laboratory results published in patent US20220356174A1, “PYRIDIN-2-ONE COMPOUNDS USEFUL AS SMARCA2 ANTAGONISTS” (Epizyme, Inc., priority 2018, published 2022).

Experiments:
FL-SMARCA4 = FL-SMARCA4 (Homo sapiens, UniProt P51532); assay: SMARCA4 ATPase activity assay (ADP-Glo, chicken mononucleosome substrate); details: ATPase assay, enzyme 5 nM, ATP 250 uM, chicken mononucleosome 10 nM, 30 min preincubation
[1] = biological target: T1, FL-SMARCA2 (full-length human SMARCA2 isoform 1) (Homo sapiens, UniProt P51531); assay: SMARCA2 ATPase activity assay (ADP-Glo, chicken mononucleosome substrate); type: biochemical; details: ATPase assay, enzyme 5 nM, ATP 250 uM, chicken mononucleosome 10 nM, 30 min preincubation
T1 construct: FLAG tag (YKDDDDK) (C); made in house; host or cells: Sf21 insect cells (baculovirus, pFastBacI)
T1 sequence (P51531 with tags, fused parts or gaps): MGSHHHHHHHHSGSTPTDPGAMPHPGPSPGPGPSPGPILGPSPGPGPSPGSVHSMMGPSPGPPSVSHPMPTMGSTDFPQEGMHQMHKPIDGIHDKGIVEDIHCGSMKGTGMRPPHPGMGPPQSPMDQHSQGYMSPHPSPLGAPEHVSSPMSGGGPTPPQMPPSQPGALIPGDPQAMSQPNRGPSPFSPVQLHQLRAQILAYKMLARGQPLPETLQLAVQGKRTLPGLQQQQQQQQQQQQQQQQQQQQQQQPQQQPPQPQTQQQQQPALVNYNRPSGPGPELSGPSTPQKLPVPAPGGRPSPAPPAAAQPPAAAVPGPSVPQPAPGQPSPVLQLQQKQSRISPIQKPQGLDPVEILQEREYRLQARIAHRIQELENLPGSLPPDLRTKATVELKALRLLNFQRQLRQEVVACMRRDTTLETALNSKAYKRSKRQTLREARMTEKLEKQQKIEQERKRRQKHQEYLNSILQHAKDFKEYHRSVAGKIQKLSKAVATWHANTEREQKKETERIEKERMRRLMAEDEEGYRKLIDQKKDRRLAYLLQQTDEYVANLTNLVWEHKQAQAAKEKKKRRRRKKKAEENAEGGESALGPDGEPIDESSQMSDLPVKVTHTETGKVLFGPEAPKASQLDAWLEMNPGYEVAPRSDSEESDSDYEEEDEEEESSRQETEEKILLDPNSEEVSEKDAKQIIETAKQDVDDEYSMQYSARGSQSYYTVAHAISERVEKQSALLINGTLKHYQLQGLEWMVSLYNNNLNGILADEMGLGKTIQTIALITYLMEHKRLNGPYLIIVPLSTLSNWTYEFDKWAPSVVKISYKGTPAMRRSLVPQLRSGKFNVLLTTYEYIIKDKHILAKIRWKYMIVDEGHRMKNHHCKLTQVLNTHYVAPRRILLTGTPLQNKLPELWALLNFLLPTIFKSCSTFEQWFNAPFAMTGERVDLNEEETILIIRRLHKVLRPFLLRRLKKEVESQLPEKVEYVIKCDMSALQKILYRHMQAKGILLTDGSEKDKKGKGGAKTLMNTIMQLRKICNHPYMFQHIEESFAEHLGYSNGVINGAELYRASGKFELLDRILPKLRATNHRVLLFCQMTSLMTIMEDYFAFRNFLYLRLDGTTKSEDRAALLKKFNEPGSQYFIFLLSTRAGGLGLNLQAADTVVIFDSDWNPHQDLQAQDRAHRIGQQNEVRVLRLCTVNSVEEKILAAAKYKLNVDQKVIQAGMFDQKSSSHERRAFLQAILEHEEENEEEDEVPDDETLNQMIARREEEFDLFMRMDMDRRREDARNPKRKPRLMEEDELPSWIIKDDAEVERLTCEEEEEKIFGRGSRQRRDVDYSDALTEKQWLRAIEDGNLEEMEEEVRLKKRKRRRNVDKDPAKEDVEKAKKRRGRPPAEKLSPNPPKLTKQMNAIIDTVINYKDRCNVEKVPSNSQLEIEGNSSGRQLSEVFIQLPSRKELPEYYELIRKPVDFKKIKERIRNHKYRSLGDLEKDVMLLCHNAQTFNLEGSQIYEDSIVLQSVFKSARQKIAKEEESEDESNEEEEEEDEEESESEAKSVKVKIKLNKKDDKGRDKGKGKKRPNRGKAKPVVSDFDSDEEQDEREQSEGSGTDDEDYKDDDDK

Sequence of FL-SMARCA4 (P51532 whole entry, canonical isoform): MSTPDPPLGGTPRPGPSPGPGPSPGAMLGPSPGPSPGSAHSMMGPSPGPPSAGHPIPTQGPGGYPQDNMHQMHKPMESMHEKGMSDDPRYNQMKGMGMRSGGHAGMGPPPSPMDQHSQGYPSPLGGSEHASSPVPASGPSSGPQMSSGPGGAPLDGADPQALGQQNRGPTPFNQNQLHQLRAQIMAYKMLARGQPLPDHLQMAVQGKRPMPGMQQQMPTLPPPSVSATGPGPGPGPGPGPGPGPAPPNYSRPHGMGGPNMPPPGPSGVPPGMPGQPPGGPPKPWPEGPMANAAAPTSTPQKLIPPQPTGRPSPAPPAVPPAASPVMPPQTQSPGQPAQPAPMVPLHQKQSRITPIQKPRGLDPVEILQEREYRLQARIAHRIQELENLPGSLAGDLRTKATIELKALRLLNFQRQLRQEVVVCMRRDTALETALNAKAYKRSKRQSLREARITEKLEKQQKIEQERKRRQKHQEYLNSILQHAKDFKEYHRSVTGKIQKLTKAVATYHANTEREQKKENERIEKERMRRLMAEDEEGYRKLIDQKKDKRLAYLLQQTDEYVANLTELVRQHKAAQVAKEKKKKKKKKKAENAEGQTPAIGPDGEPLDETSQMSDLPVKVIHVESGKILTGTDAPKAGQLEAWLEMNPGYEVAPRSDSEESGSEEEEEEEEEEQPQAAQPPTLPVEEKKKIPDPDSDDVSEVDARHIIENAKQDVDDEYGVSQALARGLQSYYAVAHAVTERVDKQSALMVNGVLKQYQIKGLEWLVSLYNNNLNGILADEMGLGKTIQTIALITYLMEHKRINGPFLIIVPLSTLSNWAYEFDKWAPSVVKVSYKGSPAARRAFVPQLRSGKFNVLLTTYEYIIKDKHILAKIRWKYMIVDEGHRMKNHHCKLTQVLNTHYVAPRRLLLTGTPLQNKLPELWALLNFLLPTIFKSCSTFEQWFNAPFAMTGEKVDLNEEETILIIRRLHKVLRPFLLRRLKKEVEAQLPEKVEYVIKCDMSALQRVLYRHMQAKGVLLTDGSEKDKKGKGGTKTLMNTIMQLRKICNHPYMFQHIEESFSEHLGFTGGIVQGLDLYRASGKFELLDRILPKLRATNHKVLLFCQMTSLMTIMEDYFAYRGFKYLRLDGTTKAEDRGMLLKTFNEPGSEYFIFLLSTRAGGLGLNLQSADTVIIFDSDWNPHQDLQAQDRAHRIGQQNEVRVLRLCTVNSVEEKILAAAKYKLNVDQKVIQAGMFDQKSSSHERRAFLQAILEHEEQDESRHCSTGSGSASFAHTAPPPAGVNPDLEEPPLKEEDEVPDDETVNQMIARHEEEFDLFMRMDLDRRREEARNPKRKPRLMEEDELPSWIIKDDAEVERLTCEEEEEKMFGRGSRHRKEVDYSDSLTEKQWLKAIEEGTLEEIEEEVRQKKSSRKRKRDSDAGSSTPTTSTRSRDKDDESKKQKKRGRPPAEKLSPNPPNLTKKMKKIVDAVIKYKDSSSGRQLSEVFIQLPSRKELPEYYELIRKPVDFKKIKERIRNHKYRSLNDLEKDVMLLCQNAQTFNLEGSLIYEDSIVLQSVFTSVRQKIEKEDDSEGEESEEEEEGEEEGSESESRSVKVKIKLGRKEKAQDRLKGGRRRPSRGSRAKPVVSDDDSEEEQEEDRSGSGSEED

| IC50 (FL-SMARCA4; FL-SMARCA4 IC50, Table 3.2) | IC50 ([1]; Table 3.1) | IC50 (FL-SMARCA4; FL-SMARCA4 IC>50, Table 3c.2) | IC50 ([1]; Table 3c.1) | Structure (SMILES) |
| --- | --- | --- | --- | --- |
| 14.3 µM | 9.42 µM | – | – | CCn1cc(NC(=O)c2cc(Cl)c(Cl)s2)cc(NCCN(C)C)c1=O [Compound 114] |
| – | – | > 50 µM | 30.5 µM | O=C(Nc1cc(F)c(=O)n(CC(F)F)c1)c1cc2c(s1)C(F)(F)CNC2 [Compound 114c] |
| 16.7 µM | > 50 µM | – | – | CCn1cc(NC(=O)c2ccn(C)c2Cl)ccc1=O [Compound 115] |
| – | – | > 50 µM | > 50 µM | CN1Cc2cc(C(=O)Nc3cc(F)c(=O)n(CC(F)F)c3)sc2C(F)(F)C1 [Compound 115c] |
| > 50 µM | 39.3 µM | – | – | CCn1cc(NC(=O)c2cc(Cl)c(OC)s2)ccc1=O [Compound 116] |
| > 50 µM | > 50 µM | – | – | CCc1cc(NC(=O)c2cc(Cl)c(Cl)s2)cn(CC)c1=O [Compound 117] |
| > 50 µM | > 50 µM | – | – | CCn1cc(NC(=O)c2cc(Cl)c(Cl)s2)cc(OCCOC)c1=O [Compound 118] |
| > 50 µM | > 50 µM | – | – | CCn1cc(NC(=O)c2cc(Cl)c(Cl)s2)cc(OCCN2CCN(C)CC2)c1=O [Compound 119] |
| – | – | 16.1 µM | 6.17 µM | O=C(Nc1cc(F)c(=O)n(CC(F)F)c1)c1cc(N2CCN(c3ccncc3)CC2)c(Cl)s1 [Compound 119c] |
| > 50 µM | > 50 µM | – | – | CCn1cc(NC(=O)c2cc(Cl)c(Cl)s2)cc(Cc2ccccc2)c1=O [Compound 120] |
| > 50 µM | > 50 µM | – | – | CCn1cc(NC(=O)c2cc(Cl)c(Cl)s2)cc(OCCN(C)C)c1=O [Compound 121] |
| > 50 µM | > 50 µM | – | – | CCn1cc(NC(=O)c2cc(Cl)c(Cl)s2)cc(OCCN2CCOCC2)c1=O [Compound 122] |
| 11.6 µM | 1.2 µM | – | – | CCn1cc(NC(=O)c2cc(Cl)c(Cl)s2)cc(C#N)c1=O [Compound 123] |
| > 50 µM | > 50 µM | – | – | CCn1cc(NC(=O)c2cn(C(F)(F)F)c(Cl)n2)ccc1=O [Compound 124] |
| > 50 µM | 46.8 µM | – | – | CCn1cc(NC(=O)c2cc(Cl)c(Cl)s2)cc(NC)c1=O [Compound 126] |
| 0.527 µM | 0.252 µM | – | – | N#Cc1sc(C(=O)Nc2ccc(=O)n(CC(F)(F)F)c2)cc1Cl [Compound 127] |
| 0.443 µM | 0.147 µM | – | – | CCn1cc(NC(=O)c2cnc(Cl)s2)cc(F)c1=O [Compound 130] |
| 0.3 µM | 0.142 µM | – | – | N#Cc1sc(C(=O)Nc2ccc(=O)n(CCF)c2)cc1Cl [Compound 132] |
| 2.18 µM | 0.343 µM | – | – | CCn1cc(NC(=O)c2cc(Cl)c(Cl)n2C)cc(Cl)c1=O [Compound 133] |
| – | – | 0.0607 µM | 0.0139 µM | O=C(Nc1cc(F)c(=O)n(CC(F)F)c1)c1cc(C#Cc2ccnnc2)c(Cl)s1 [Compound 133c] |
| 0.631 µM | 0.148 µM | – | – | Cn1c(C(=O)Nc2cc(Cl)c(=O)n(CCF)c2)cc(Cl)c1Cl [Compound 134] |
| 2 µM | 0.293 µM | – | – | Cn1c(C(=O)Nc2cc(Cl)c(=O)n(CC(F)(F)F)c2)cc(Cl)c1Cl [Compound 135] |
| – | – | 35.8 µM | 39.5 µM | O=C(Nc1cc(F)c(=O)n(CC(F)F)c1)C1CCC(C(F)(F)F)O1 (stereo not shown) [Compound 135c] |
| – | – | 0.558 µM | 0.3 µM | O=C(Nc1cc(F)c(=O)n(CC(F)F)c1)c1cc(C#Cc2cccc3c2CNC3=O)c(Cl)s1 [Compound 137c] |
| – | – | 0.0657 µM | 0.0288 µM | O=C(Nc1cc(F)c(=O)n(CC(F)F)c1)c1cc(C#Cc2cccc(CO)c2)c(Cl)s1 [Compound 138c] |
| > 50 µM | 17.1 µM | – | – | CCn1cc(NC(=O)c2csc(Cl)n2)ccc1=O [Compound 147] |
| > 50 µM | > 50 µM | – | – | CCn1cc(NC(=O)c2cc(Cl)c(Cl)s2)cc(N(C)C)c1=O [Compound 149] |
| 0.616 µM | 0.166 µM | – | – | Cn1c(C(=O)Nc2cc(F)c(=O)n(CCF)c2)cc(Cl)c1C#N [Compound 152] |
| – | – | 37.5 µM | 4.69 µM | O=C(Nc1cc(F)c(=O)n(CC(F)F)c1)c1cc(C2CC(c3ccncc3)C2)c(Cl)s1 (stereo not shown) [Compound 152c] |
